One data set deals with Beta-lactamase (Enterobacter cloacae, UniProt P05364). The data set can be described thus: Inhibitor activity against Beta-lactamase, derived from the Gram negative bacteria Enterobacter cloacae at pH 7.
Data set [1] in a line: pKa value was determined. The class given is physicochemical.

Beta-lactamase, sequence (P05364 whole entry): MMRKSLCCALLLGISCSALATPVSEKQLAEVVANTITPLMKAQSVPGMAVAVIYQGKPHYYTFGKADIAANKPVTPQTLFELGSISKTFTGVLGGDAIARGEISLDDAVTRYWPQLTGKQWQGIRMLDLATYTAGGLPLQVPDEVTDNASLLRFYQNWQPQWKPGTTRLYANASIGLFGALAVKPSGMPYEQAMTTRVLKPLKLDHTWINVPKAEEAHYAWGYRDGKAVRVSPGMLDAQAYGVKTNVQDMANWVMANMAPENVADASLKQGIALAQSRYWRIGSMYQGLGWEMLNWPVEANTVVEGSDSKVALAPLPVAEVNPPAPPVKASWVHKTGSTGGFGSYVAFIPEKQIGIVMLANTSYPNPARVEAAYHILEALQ

In the case of `CC(C)C1CN(C(=O)c2ccccc2)S1(=O)=O` (stereo not drawn), the kinact/Ki at Beta-lactamase was determined as 0.07 M⁻¹ s⁻¹.
For the compound `O=C(c1ccccc1)N1CCS1(=O)=O`, the pKa (usually the negative logarithm of the acid dissociation constant) in data set [1] was determined as 6.3. The kinact/Ki at Beta-lactamase came to 163 M⁻¹ s⁻¹.

The values above are taken from ChEMBL document CHEMBL1136502, “Novel mechanism of inhibiting beta-lactamases by sulfonylation using beta-sultams” (Bioorg Med Chem Lett, 2003).
